# Results taken from ChEMBL document CHEMBL1201862, “PubChem BioAssay data set” (2004).
#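 Cells were grown in 96-well plates and exposed to each compound for 48 hours at five concentrations; endpoints were interpolated linearly between bracketing concentrations, or set to the highest concentration if not reached. GI50 is the concentration that inhibits growth by half.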 Calls of active or inactive are those of the source. Rule as the data show it: active = GI50 up to about 1.1 µM and inactive = higher.
# Assays:
# Assay in all cases: inhibition of tumour cell growth, NCI panel, 48 h
# [1] = system: HCC 2998
# [2] = system: M19-MEL
# [3] = system: U-251
# [4] = system: HT-29
# [5] = system: SF-295
# [6] = system: SF-268
# [7] = system: SK-MEL-5
# [8] = system: HOP-18
# [9] = system: DLD-1
# [10] = system: KM12
# [11] = system: M14
# [12] = system: HOP-92
# [13] = system: HL-60
# [14] = system: NCI-H23
# [15] = system: SNB-19
# [16] = system: EKVX
# [17] = system: RXF 393
# [18] = system: SR
# [19] = system: HCT-15
# [20] = system: SK-MEL-28
# [21] = system: 786-0
# [22] = system: SW-620
# [23] = system: RXF 631
# [24] = system: OVCAR-5
# [25] = system: IGROV-1
# [26] = system: SN12C
# [27] = system: SK-MEL-2
# [28] = system: MOLT-4
# [29] = system: A498
# [30] = system: SNB-75
# [31] = system: ACHN
# [32] = system: UACC-257
# [33] = system: RPMI-8226
# [34] = system: LXFL 529
# [35] = system: OVCAR-4
# [36] = system: CCRF-CEM
# [37] = system: CAKI-1
# [38] = system: KM-20L2
# [39] = system: SNB-78
# [40] = system: COLO 205
# [41] = system: DMS-114
# [42] = system: NCI-H460
# [43] = system: UACC-62
# [44] = system: TK-10
# [45] = system: A549
# [46] = system: NCI-H226
# [47] = system: DMS-273
# [48] = system: K562
# [49] = system: HCT-116
# [50] = system: SK-OV-3
# [51] = system: LOX IMVI
# [52] = system: UO-31
# [53] = system: OVCAR-3
# [54] = system: SF-539
# [55] = system: Malme-3M
# [56] = system: HOP-62
# [57] = system: OVCAR-8
# [58] = system: NCI-H522
compound,measurement,setting,value
CC1=C(c2cc(C(=O)Nc3cccc(C(F)(F)F)c3)nc(NC#N)n2)Sc2ccccc2N1,GI50,[1],> 100 µM (inactive)
same,GI50,[2],> 100 µM (inactive)
same,GI50,[3],86.5 µM (inactive)
same,GI50,[4],> 100 µM (inactive)
same,GI50,[5],> 100 µM (inactive)
same,GI50,[6],> 100 µM (inactive)
same,GI50,[7],> 100 µM (inactive)
same,GI50,[8],> 100 µM (inactive)
same,GI50,[9],> 100 µM (inactive)
same,GI50,[10],> 100 µM (inactive)
same,GI50,[11],> 100 µM (inactive)
same,GI50,[12],> 100 µM (inactive)
same,GI50,[13],> 100 µM (inactive)
same,GI50,[14],> 100 µM (inactive)
same,GI50,[15],> 100 µM (inactive)
same,GI50,[16],> 100 µM (inactive)
same,GI50,[17],> 100 µM (inactive)
same,GI50,[18],> 100 µM (inactive)
same,GI50,[19],> 100 µM
same,GI50,[20],> 100 µM (inactive)
same,GI50,[21],97.5 µM (inactive)
same,GI50,[22],> 100 µM (inactive)
same,GI50,[23],> 100 µM (inactive)
same,GI50,[24],> 100 µM (inactive)
same,GI50,[25],> 100 µM (inactive)
same,GI50,[26],> 100 µM (inactive)
same,GI50,[27],> 100 µM (inactive)
same,GI50,[28],> 100 µM (inactive)
same,GI50,[29],> 100 µM (inactive)
same,GI50,[30],> 100 µM (inactive)
same,GI50,[31],> 100 µM (inactive)
same,GI50,[32],> 100 µM (inactive)
same,GI50,[33],> 100 µM (inactive)
same,GI50,[34],> 100 µM (inactive)
same,GI50,[35],31.7 µM (inactive)
same,GI50,[36],68.7 µM (inactive)
same,GI50,[37],> 100 µM (inactive)
same,GI50,[38],> 100 µM (inactive)
same,GI50,[39],> 100 µM (inactive)
same,GI50,[40],> 100 µM (inactive)
same,GI50,[41],> 100 µM (inactive)
same,GI50,[42],> 100 µM (inactive)
same,GI50,[43],> 100 µM (inactive)
same,GI50,[44],> 100 µM (inactive)
same,GI50,[45],> 100 µM (inactive)
same,GI50,[46],> 100 µM (inactive)
same,GI50,[47],> 100 µM (inactive)
same,GI50,[48],> 100 µM (inactive)
same,GI50,[49],> 100 µM (inactive)
same,GI50,[50],> 100 µM (inactive)
same,GI50,[51],> 100 µM (inactive)
same,GI50,[52],> 100 µM (inactive)
same,GI50,[53],> 100 µM (inactive)
same,GI50,[54],> 100 µM (inactive)
same,GI50,[55],> 100 µM (inactive)
same,GI50,[56],> 100 µM (inactive)
CC1(C)OC(=O)C(C#N)=C1/C=C/c1coc2ccc(Cl)cc2c1=O,GI50,[1],34.8 µM (inactive)
same,GI50,[2],41.2 µM (inactive)
same,GI50,[3],34.4 µM (inactive)
same,GI50,[4],> 10 µM (inactive)
same,GI50,[5],29.8 µM (inactive)
same,GI50,[6],29.5 µM (inactive)
same,GI50,[57],25.7 µM (inactive)
same,GI50,[7],21.9 µM (inactive)
same,GI50,[9],23.1 µM (inactive)
same,GI50,[10],41.3 µM (inactive)
same,GI50,[11],35.6 µM (inactive)
same,GI50,[14],21 µM (inactive)
same,GI50,[15],30.4 µM (inactive)
same,GI50,[16],47 µM (inactive)
same,GI50,[18],31.5 µM (inactive)
same,GI50,[19],27.4 µM
same,GI50,[20],47.5 µM (inactive)
same,GI50,[21],37.2 µM (inactive)
same,GI50,[22],39.2 µM (inactive)
same,GI50,[23],38.8 µM (inactive)
same,GI50,[24],45.1 µM (inactive)
same,GI50,[25],58.3 µM (inactive)
same,GI50,[26],30.1 µM (inactive)
same,GI50,[27],22.1 µM (inactive)
same,GI50,[28],26.1 µM (inactive)
same,GI50,[30],14.9 µM (inactive)
same,GI50,[32],31.3 µM (inactive)
same,GI50,[33],26.9 µM (inactive)
same,GI50,[34],27.9 µM (inactive)
same,GI50,[35],24.6 µM (inactive)
same,GI50,[36],17.7 µM (inactive)
same,GI50,[37],10.8 µM (inactive)
same,GI50,[38],42.2 µM (inactive)
same,GI50,[39],33.8 µM (inactive)
same,GI50,[40],57.7 µM (inactive)
same,GI50,[41],34.8 µM (inactive)
same,GI50,[42],18.8 µM (inactive)
same,GI50,[43],31.7 µM (inactive)
same,GI50,[45],45.7 µM (inactive)
same,GI50,[46],29.4 µM (inactive)
same,GI50,[47],35.1 µM (inactive)
same,GI50,[48],27.5 µM (inactive)
same,GI50,[49],33 µM (inactive)
same,GI50,[50],19.4 µM (inactive)
same,GI50,[51],18.9 µM (inactive)
same,GI50,[52],27.1 µM (inactive)
same,GI50,[53],18.4 µM (inactive)
same,GI50,[58],74 µM (inactive)
same,GI50,[54],> 10 µM (inactive)
same,GI50,[55],26.2 µM (inactive)
same,GI50,[56],23.7 µM (inactive)
CCCCC#COP(=O)(OCC)OCC,GI50,[1],> 100 µM (inactive)
same,GI50,[2],> 100 µM (inactive)
same,GI50,[3],> 100 µM (inactive)
same,GI50,[4],> 100 µM (inactive)
same,GI50,[5],> 100 µM (inactive)
same,GI50,[6],> 100 µM (inactive)
same,GI50,[57],> 100 µM (inactive)
same,GI50,[7],> 100 µM (inactive)
same,GI50,[9],> 100 µM (inactive)
same,GI50,[10],> 100 µM (inactive)
same,GI50,[11],> 100 µM (inactive)
same,GI50,[13],> 100 µM (inactive)
same,GI50,[14],> 100 µM (inactive)
same,GI50,[15],> 100 µM (inactive)
same,GI50,[16],> 100 µM (inactive)
same,GI50,[18],> 100 µM (inactive)
same,GI50,[19],> 100 µM
same,GI50,[21],> 100 µM (inactive)
same,GI50,[22],> 100 µM (inactive)
same,GI50,[23],> 100 µM (inactive)
same,GI50,[24],> 100 µM (inactive)
same,GI50,[25],> 100 µM (inactive)
same,GI50,[26],> 100 µM (inactive)
same,GI50,[27],> 100 µM (inactive)
same,GI50,[28],> 100 µM (inactive)
same,GI50,[29],> 100 µM (inactive)
same,GI50,[31],> 100 µM (inactive)
same,GI50,[32],> 100 µM (inactive)
same,GI50,[33],> 100 µM (inactive)
same,GI50,[34],> 100 µM (inactive)
same,GI50,[35],> 100 µM (inactive)
same,GI50,[36],> 100 µM (inactive)
same,GI50,[37],> 100 µM (inactive)
same,GI50,[38],> 100 µM (inactive)
same,GI50,[39],> 100 µM (inactive)
same,GI50,[40],> 100 µM (inactive)
same,GI50,[41],> 100 µM (inactive)
same,GI50,[42],> 100 µM (inactive)
same,GI50,[43],> 100 µM (inactive)
same,GI50,[44],> 100 µM (inactive)
same,GI50,[45],> 100 µM (inactive)
same,GI50,[46],> 100 µM (inactive)
same,GI50,[49],> 100 µM (inactive)
same,GI50,[50],> 100 µM (inactive)
same,GI50,[51],> 100 µM (inactive)
same,GI50,[52],> 100 µM (inactive)
same,GI50,[53],> 100 µM (inactive)
same,GI50,[58],> 100 µM (inactive)
same,GI50,[54],> 100 µM (inactive)
same,GI50,[55],> 100 µM (inactive)
same,GI50,[56],> 100 µM (inactive)
